A short description of data set [1]: Stability assessment under stress conditions (solid form by XRPD after storage). To be noted: 14 days; for Stability under stress conditions: 25° C./60% RH and 40° C./75% RH; for Final form: XRPD. The data set is classed as physicochemical. The method, then:
Analytical Instrument: Panalytical Empyrean. The X-ray powder diffractogram was determined by mounting a sample of the crystalline material on a Si single crystal low-background holder and spreading out the sample into a thin layer with the aid of a microscope slide. The 2θ position was calibrated against Panalytical 640 Si powder standard. The sample irradiated with X-rays generated by a copper long-fine focus tube operated at 45 kV and 40 mA with a wavelength of Kα1=1.540589 angstroms and Kα2=1.544426 angstroms (Kα1/Kα2 intensity ratio is 0.50). The collimated X-ray source was passed through a programmed divergence slit set at 10 mm and the reflected radiation directed through a 5.5 mm anti-scattering slit. The sample was exposed for 16.3 seconds per 0.013° 2-theta increment (continuous scan mode) over the range 3 degrees to 40 degrees 2-theta in theta-theta mode. The running time was 3 minutes and 57 seconds. The instrument was equipped with an RTMS detector (X'Celerator). Control and data capture was accomplished by means of a Dell Optiplex 780 XP operating with data collector software.
The solid samples were analyzed by […].
The solid samples were analyzed by XRPD.

A short description of data set [2]: Hygroscopicity assessment by dynamic vapor sorption (DVS). The data set is classed as physicochemical. The protocol:
Dynamic Vapor Sorption (DVS) was measured via a SMS (Surface Measurement Systems) DVS Intrinsic. The relative humidity at 25° C. was calibrated against deliquescence point of LiCl, Mg(NO3)2 and KCl. Typical Parameters for DVS test are listed below.
Gas and flow rate: N2, 200 mL/min

Data set [3] is described as follows: Kinetic solubility in bio-relevant media (FaSSIF, FeSSIF), HPLC quantification. In kind it is physicochemical. To be noted: thermodynamic from solid, RT; for solubility at 1 h: time point 1 h; for solubility at 4 h: time point 4 h; for solubility at 24 h: time point 24 h. The protocol: 2. Add 3 mL of bio-relevant medium into each vial.
3. Cap the vials and keep all the suspension samples stirring at RT (room temperature) using a rolling incubator at a rate of 25 r/min.
4. Sample at 1 h, 4 h and 24 h respectively. About 0.6 mL aliquot of the suspension is transferred per time from solubility vial into a centrifuge filtration tube (pore size of 0.45 μm).
5. Centrifuge filtration tubes at a rate of 8500 rpm for 3 minutes at RT, collect 0.2 mL of supernatant for HPLC quantification determination and collect the rest of solution for pH measurement, and separate the solid for XRPD characterization.

The next data set concerns gout patients. The conditions noted are these: gout patients who did not get benefit from allopurinol and febuxostat; lesinurad alone; cited from earlier work.
Where [4] appears, read: FaSSIF (fasted state simulated intestinal fluid), FaSSIF.
Setting [5] is: FeSSIF (fed state simulated intestinal fluid), FeSSIF.

Values after ≈ are worked out from the molar mass of the structure shown.

These results are taken from US9969701B2, “Salts and co-crystals of lesinurad” (CRYSTAL PHARMATECH, INC., priority 2013, dated 2018).

Turning to `O=C(O)CSc1nnc(Br)n1-c1ccc(C2CC2)c2ccccc12.O=C(O)[C@@H]1CCCN1`, in data set [1], the “Stability under stress conditions” value is given as “stable”. Also, the Final form result in data set [1] (stored under 25° C./60% RH) and in data set [1] (stored under 40° C./75% RH) was “co-crystal” in each case.
As for `O=C([O-])CSc1nnc(Br)n1-c1ccc(C2CC2)c2ccccc12.O=C([O-])CSc1nnc(Br)n1-c1ccc(C2CC2)c2ccccc12.[Ca+2]` [calcium salt Form A], the “Stability under stress conditions” value in data set [1] is “stable”. The Final form entry in data set [1] (stored under 25° C./60% RH) and in data set [1] (stored under 40° C./75% RH) was “calcium salt Form A” in each case. Also, in data set [2] (25° C., 80% RH), the “Water uptake under 80% RH” value was 0.15%. Further, the “Water uptake under 95% RH” value in data set [2] (25° C.) was found to be 0.33%. Moreover, the Hygroscopicity entry in data set [2] (80% RH, 25° C., European pharmacopoeia criteria) is recorded as “almost not hygroscopic”. In addition, in data set [2] (high humidity), the “Deliquescence under high humidity conditions” value is “does not deliquesce”.
In general, solubility refers to the dissolved amount per volume that the medium holds. A low value points to little dissolved substance. For `O=C(O)CSc1nnc(Br)n1-c1ccc(C2CC2)c2ccccc12` [lesinurad freeacid, 2-((5-bromo-4-(4-cyclopropylnaphthalen-1-yl)-4H-1,2,4-triazol-3-yl)thio)acetic acid], in data set [3] (setting [4]), the solubility at 1 h was 2890 µg/mL (≈ 7.15 mM), the solubility at 4 h was 3580 µg/mL (≈ 8.86 mM) and the concentration in solution (solubility at 24 h) was 3000 µg/mL (≈ 7.42 mM). In data set [3] (setting [5]), this molecule displayed a solubility at 1 h of 1510 µg/mL (≈ 3.72 mM), a solubility at 4 h of 2140 µg/mL (≈ 5.29 mM) and a solubility at 24 h of 1930 µg/mL (≈ 4.78 mM). Moreover, in the data set on gout patients, the “Serum levels of uric acid” value is “significantly reduced”.
As for `O=C([O-])CSc1nnc(Br)n1-c1ccc(C2CC2)c2ccccc12.[Na+]` [sodium salt Form A, reference compound], the “Water uptake under 80% RH” value in data set [2] (25° C., 80% RH) was determined as 25.11%. Further, the “Water uptake under 95% RH” value in data set [2] (25° C.) came out at 32.13%.
